Each structure is given as a SMILES string.

Results on 2 molecules are retold here after US20210015884A1 (priority 2018, published 2021).

In this assay the test system is m^6A levels in viral RNA. The class given is cell-based.

With `Nc1nccc2c1ncn2[C@@H]1O[C@H](CO)[C@@H](O)[C@H]1O` [3DZA, 3-Deazaadenosine], the “total m^6A levels in viral RNA” value was “reduction of m^6A”.

Consider `Cc1ccc(Cl)c(Nc2ccccc2C(=O)O)c1Cl` [MA, meclofenamic acid], for which the “total m^6A levels in viral RNA” value is on record as “increase of m^6A”.
